Key:
Assay in all cases: In Vitro Kinase Assay
Conditions in all cases: pH 7.5
[1] = molecular target: Aurora kinase B (Homo sapiens, UniProt Q96GD4)
Procedure: (§1) The IC50 for the different compounds was determined with Invitrogen Z'-LYTE kinase assay kit Ser/Thr 1 peptide PV3174 by following the manufacturer's instructions. To determine the IC50 of receptor tyrosine kinase, an assay based on the ELISA principle with kinases from Biomol (N-terminally fused to GST), POD-coupled antibody from Calbiochem (PY20)) and BM chem chemiluminescence ELISA substrate from Roche was performed.

[2] = molecular target: Vascular endothelial growth factor receptor 3 (Homo sapiens, UniProt P35916)
Procedure: as §1

[3] = molecular target: T1, Aurora kinase A (Homo sapiens, UniProt O14965)
T1 sequence (O14965 whole entry): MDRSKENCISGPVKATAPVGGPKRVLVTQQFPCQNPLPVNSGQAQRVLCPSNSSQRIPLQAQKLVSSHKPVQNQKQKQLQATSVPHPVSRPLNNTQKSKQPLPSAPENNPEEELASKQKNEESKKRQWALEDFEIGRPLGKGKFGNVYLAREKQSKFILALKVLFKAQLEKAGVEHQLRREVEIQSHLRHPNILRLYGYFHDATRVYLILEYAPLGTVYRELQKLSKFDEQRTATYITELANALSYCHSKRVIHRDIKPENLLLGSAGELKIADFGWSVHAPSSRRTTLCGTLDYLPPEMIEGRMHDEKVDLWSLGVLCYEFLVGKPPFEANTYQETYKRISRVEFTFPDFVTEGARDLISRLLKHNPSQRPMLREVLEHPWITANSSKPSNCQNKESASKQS
Procedure: as §1

[4] = molecular target: Insulin-like growth factor 1 receptor (Homo sapiens, UniProt P08069)
Procedure: as §1

[5] = molecular target: Fibroblast growth factor receptor 1 (Homo sapiens, UniProt P11362)
Procedure: as §1

[6] = molecular target: Epidermal growth factor receptor (Homo sapiens, UniProt P00533)
Procedure: as §1

[7] = molecular target: Vascular endothelial growth factor receptor 2 (Homo sapiens, UniProt P35968)
Procedure: as §1

[8] = molecular target: Angiopoietin-1 receptor (Homo sapiens, UniProt Q02763)
Procedure: as §1

Chain of Epidermal growth factor receptor (P00533 whole entry): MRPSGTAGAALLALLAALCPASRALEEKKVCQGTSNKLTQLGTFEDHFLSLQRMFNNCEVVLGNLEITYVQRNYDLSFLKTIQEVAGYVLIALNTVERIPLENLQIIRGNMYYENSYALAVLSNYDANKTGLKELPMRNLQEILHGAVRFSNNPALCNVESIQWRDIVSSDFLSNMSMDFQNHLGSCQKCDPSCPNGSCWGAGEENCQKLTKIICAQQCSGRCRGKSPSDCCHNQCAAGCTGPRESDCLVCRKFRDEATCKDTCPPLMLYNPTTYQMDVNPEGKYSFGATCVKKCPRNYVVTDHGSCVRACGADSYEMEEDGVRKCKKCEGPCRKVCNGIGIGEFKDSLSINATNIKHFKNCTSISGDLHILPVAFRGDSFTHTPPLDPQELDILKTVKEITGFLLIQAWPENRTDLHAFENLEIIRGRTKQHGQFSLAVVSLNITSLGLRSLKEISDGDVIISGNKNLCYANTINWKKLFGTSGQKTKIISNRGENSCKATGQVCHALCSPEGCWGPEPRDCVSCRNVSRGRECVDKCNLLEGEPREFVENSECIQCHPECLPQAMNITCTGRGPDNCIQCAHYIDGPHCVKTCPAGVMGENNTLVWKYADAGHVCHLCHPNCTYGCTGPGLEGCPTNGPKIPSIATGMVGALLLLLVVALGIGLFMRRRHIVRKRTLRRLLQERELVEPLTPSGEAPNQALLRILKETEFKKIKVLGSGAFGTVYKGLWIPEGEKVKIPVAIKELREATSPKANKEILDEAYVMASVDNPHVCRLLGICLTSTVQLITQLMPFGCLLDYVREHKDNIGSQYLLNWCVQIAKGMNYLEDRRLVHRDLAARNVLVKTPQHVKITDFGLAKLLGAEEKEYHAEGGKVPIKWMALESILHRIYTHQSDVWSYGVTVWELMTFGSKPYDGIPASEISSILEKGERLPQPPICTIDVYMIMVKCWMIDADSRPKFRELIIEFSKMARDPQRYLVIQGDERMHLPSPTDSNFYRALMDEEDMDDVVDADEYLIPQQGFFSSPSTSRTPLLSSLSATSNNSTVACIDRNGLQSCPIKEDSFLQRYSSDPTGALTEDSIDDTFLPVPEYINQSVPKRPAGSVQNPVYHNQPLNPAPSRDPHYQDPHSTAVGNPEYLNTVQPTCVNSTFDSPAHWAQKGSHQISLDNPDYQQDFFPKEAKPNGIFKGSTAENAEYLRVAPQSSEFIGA
Chain of Fibroblast growth factor receptor 1 (P11362 whole entry): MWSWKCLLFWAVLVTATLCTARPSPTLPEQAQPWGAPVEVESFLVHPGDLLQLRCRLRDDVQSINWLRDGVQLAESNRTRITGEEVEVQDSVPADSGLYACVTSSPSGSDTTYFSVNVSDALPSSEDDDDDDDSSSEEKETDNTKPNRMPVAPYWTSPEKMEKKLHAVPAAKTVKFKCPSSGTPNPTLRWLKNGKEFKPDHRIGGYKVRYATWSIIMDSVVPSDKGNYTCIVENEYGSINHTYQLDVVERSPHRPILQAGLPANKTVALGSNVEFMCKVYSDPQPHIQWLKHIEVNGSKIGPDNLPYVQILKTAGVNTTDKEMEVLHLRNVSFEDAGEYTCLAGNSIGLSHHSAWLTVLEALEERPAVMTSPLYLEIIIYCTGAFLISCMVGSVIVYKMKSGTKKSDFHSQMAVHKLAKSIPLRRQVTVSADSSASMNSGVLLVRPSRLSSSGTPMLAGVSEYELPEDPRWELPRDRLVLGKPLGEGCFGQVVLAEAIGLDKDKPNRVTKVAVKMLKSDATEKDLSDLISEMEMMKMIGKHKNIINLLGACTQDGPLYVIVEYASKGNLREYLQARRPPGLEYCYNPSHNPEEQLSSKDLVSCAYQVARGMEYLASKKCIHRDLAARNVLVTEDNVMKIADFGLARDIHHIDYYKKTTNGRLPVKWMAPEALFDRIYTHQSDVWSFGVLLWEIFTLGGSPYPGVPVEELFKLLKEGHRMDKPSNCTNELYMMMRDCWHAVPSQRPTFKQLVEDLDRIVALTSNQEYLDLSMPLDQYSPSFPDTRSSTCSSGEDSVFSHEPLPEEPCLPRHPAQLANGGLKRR
Chain of Angiopoietin-1 receptor (Q02763 whole entry): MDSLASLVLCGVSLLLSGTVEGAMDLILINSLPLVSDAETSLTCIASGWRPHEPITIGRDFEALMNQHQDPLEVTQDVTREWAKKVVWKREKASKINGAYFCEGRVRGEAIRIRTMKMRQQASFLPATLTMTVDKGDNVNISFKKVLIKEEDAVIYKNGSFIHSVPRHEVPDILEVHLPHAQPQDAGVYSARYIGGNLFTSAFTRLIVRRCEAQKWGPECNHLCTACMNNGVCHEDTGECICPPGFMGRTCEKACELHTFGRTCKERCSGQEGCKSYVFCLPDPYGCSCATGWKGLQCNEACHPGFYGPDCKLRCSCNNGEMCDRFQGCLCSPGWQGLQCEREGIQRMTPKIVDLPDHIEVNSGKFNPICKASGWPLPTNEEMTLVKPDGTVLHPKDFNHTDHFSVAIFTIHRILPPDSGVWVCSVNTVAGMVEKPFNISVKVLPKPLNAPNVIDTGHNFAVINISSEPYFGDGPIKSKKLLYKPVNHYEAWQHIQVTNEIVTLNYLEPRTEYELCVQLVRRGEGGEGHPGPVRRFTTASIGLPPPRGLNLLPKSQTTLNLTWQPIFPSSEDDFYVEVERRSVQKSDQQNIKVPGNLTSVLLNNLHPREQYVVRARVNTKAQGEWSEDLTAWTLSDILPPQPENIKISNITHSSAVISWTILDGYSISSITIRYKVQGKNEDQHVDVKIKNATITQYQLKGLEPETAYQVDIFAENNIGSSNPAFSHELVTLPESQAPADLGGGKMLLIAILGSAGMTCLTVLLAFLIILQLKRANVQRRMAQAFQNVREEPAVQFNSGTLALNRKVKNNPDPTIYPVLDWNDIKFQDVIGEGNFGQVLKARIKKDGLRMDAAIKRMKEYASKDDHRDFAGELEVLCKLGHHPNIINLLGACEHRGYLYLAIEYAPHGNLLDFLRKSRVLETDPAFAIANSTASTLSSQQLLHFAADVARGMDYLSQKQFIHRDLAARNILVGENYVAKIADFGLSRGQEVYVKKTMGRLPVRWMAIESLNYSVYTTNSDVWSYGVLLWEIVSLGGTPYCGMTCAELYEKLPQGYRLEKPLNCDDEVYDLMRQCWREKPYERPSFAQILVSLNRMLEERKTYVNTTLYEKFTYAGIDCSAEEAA
Chain of Vascular endothelial growth factor receptor 3 (P35916 whole entry): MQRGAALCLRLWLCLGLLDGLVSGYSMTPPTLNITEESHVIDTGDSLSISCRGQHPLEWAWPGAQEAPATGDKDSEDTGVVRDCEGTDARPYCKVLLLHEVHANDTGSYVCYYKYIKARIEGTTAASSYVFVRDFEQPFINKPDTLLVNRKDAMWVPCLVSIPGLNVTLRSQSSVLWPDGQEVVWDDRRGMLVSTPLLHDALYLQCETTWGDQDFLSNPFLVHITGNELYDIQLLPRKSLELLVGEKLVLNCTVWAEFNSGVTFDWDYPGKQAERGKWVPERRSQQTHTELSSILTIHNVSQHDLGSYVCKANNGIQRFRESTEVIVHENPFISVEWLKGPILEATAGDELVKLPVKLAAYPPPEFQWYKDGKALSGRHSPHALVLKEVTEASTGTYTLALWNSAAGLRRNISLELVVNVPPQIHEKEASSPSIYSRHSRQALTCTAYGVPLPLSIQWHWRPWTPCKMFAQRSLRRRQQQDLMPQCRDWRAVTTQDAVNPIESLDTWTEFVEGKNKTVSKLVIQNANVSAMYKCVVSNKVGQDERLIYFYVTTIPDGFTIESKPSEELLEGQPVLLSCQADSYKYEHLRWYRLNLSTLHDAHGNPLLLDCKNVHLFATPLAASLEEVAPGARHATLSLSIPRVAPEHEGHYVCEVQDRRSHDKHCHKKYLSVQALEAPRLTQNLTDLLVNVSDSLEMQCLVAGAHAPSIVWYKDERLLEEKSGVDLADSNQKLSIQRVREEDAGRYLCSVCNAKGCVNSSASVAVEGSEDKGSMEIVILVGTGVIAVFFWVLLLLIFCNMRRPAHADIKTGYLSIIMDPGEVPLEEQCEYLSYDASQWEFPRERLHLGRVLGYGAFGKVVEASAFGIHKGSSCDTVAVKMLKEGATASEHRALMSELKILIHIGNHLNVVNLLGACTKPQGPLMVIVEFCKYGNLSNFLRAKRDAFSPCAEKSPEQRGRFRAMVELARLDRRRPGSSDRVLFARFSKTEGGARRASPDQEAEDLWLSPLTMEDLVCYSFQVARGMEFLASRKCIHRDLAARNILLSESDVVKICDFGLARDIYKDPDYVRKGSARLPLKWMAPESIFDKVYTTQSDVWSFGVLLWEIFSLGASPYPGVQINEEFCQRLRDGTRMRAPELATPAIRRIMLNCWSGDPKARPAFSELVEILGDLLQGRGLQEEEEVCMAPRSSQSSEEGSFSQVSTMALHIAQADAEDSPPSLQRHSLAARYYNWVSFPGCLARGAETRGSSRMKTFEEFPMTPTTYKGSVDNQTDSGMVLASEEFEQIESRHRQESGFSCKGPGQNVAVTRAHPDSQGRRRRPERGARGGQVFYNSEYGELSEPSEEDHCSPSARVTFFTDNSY
Chain of Aurora kinase B (Q96GD4 whole entry, the tested form may be a part): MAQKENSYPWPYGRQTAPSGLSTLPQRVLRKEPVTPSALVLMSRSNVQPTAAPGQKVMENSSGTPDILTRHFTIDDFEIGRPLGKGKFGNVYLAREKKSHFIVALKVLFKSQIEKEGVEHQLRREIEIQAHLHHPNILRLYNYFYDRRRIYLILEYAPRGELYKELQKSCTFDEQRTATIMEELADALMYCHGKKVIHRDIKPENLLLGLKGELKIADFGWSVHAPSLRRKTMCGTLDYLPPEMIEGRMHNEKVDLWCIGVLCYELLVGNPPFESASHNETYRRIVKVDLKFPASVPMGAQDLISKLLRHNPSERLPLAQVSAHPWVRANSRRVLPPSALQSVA

Compound	IC50 [1] [µM]	IC50 [2] [µM]	IC50 [3] [µM]	IC50 [4] [µM]	IC50 [5] [µM]	IC50 [6] [µM]	IC50 [7] [µM]	IC50 [8] [µM]
CC(C)Nc1nc(-c2ccco2)nc2ccc(C#CCO)cc12 [TC-28]	> 100	> 100	2.7	> 100	> 100	> 100	> 100	> 100
CC(C)Nc1nc(-c2ccco2)nc2ccc(C=CC(C)(C)O)cc12 [TC-34]	16.2	4.2	1.9	41.5	> 100	> 100		> 100

— BindingDB's records for doi:10.1002/cbic.200800600 (Parc De Recerca Biomedica De Barcelona, 2009)
